How the values were obtained:
[1] = target: T1, AMPK α2/α1 HOOK β1γ1 (Homo sapiens, UniProt P54619+P54646, A386E/C382H/K379R/P383T); experiment: Chimeric AMPK complex activation assay; assay type: biochemical; conditions: complex expressed in E. coli; read-out: EC50, allosteric activation
T1 construct: 6×His (N); made in house; host or cells: E. coli (tricistronic pET15-b construct)
Source text: (§1) Figure 3 Regulatory Elements within the α-Linker Determine the Isoform Specificity of C2 (A) Diagram illustrating the domain organization of the AMPKα subunit with a global pairwise alignment of a section of the α-linker of human AMPKα1 (Q13131) and AMPKα2 (P54646). Regulatory elements in the α-linker are highlighted, including the α-hook as originally defined by [Xiao et al. (2011)] (pink) and the reassigned sequence (also known as α-RIM2) shaded in orange. The secondary structure for α1 is derived from PDB ID 2Y94. The table summarizes the sequences of the α1/α2 chimeras produced to examine the role of various structural elements in the activation of α2β1γ1 complexes by C2. (B–E) Human AMPKα1/α2 chimeras (defined in A) were generated as complexes with β1γ1 in E. coli. Purified active complexes were assayed for the activation of phosphotransferase activity by AMP and C2, as described in Figure 1. Results (line graphs) are expressed as the fold increase in activity relative to reactions performed in the absence of compound and represent the mean ± SD of three independent experiments. Complexes were also assayed for protection against dephosphorylation and inactivation by PP2Cα, as described in Figures 2C and 2D. Results (bar charts) are expressed as the mean (percentage of control) ± SD of three independent experiments. Representative blots of pT172 and total AMPKα are shown below the bar charts. TEXT PRINTED IN THE PICTURE: (B) C2: AMPK211 - α2/α1 CAT: EC50: ND | (B) AMP: AMPK211 - α2/α1 CAT: EC50: 1.3 ± 0.2 μM | (C) C2: AMPK211 - α2/α1 REG: EC50: 0.009 ± 0.0006 μM | (C) AMP: AMPK211 - α2/α1 REG: EC50: 3.1 ± 0.3 μM | (D) C2: AMPK211 - α2/α1 HOOK: EC50: ND | (D) AMP: AMPK211 - α2/α1 HOOK: EC50: 1.4 ± 0.2 μM | (E) C2: AMPK211 + α2/α1 LOOP: EC50: 0.013 ± 0.001 μM | (E) AMP: AMPK211 + α2/α1 LOOP: EC50: 2.7 ± 0.3 μM […]
(§2) AMPK phosphotransferase activity was assayed in reactions (50 μl) containing 50 mM HEPES, pH 7.4, 10 mM MgCl2, 0.1 mM EGTA, 1 mM DTT, 0.01% BRIJ-35, 100 μM [γ-^32P]ATP (∼250 CPM⋅pmol^−1) and 200 μM AMARA (AMARAASAAALARRR). Reactions were started by the addition of AMPK (5 mU), incubated for 20 min at 30°C and quenched by spotting onto P81 and immersion in 75 mM H3PO4. Washed filters were dried and [^32P] incorporation determined by Cherenkov counting. AMPK activity in cell extracts was determined by immunoprecipitation with AMPKα1 or AMPKα2 antibodies from 50 μg material, as previously described ([Hunter et al., 2011]). […]

[2] = target: T2, AMPK α2/α1 CAT β1γ1 (Homo sapiens, UniProt P54619+P54646, A116S/A126G/A242I/C200S/E112D/E217D/E235Q/E34K/F89I/G228D/H108N/I233T/I32V/K62R/L254M/M114K/M246K/Q36E/R227C/R239P/T243S/T87S/V111L/V17I/V230I); experiment: Chimeric AMPK complex activation assay; assay type: biochemical; conditions: complex expressed in E. coli; read-out: EC50, allosteric activation
T2 construct: 6×His (N); made in house; host or cells: E. coli (tricistronic pET15-b construct)
Source text: as §1, §2

T1 sequence (P54646 whole entry K379R/C382H/P383T/A386E): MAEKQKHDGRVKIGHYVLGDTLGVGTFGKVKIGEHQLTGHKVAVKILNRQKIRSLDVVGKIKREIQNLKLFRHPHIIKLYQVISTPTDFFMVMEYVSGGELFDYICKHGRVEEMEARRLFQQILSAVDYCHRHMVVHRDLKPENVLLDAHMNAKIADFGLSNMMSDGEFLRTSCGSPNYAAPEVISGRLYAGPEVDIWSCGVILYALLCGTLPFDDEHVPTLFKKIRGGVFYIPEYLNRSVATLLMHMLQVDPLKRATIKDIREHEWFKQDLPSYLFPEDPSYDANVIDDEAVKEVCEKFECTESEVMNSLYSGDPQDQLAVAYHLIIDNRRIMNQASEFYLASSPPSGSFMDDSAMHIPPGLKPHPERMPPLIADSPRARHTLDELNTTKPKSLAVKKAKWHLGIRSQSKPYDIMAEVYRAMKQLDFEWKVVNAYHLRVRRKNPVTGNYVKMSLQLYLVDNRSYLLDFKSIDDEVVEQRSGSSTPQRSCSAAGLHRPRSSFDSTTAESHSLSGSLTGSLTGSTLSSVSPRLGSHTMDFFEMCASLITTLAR
T1 sequence (Q9Y478 whole entry partner): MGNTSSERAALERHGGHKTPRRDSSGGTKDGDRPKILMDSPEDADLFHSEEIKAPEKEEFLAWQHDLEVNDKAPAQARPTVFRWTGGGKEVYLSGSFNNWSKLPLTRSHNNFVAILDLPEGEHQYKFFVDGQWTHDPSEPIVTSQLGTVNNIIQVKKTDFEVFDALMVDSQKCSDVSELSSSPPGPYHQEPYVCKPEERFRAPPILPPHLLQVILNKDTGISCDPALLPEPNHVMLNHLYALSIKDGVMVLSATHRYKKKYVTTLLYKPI
T1 sequence (P54619 whole entry): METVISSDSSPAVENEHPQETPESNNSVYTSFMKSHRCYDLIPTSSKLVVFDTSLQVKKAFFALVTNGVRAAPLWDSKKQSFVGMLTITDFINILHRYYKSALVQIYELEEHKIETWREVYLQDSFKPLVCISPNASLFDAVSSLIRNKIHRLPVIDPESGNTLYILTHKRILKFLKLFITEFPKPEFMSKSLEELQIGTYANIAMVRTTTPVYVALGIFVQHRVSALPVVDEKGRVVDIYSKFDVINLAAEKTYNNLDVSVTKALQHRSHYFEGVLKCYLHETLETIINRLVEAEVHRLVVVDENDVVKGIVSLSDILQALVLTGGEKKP
T2 sequence (P54619 whole entry, stated change not applied): as the sequence (P54619 whole entry) above
T2 sequence (Q9Y478 whole entry, further chain): as the sequence (Q9Y478 whole entry partner) above
T2 sequence (P54646 other isoform, or with tags, fused parts or gaps with the stated changes): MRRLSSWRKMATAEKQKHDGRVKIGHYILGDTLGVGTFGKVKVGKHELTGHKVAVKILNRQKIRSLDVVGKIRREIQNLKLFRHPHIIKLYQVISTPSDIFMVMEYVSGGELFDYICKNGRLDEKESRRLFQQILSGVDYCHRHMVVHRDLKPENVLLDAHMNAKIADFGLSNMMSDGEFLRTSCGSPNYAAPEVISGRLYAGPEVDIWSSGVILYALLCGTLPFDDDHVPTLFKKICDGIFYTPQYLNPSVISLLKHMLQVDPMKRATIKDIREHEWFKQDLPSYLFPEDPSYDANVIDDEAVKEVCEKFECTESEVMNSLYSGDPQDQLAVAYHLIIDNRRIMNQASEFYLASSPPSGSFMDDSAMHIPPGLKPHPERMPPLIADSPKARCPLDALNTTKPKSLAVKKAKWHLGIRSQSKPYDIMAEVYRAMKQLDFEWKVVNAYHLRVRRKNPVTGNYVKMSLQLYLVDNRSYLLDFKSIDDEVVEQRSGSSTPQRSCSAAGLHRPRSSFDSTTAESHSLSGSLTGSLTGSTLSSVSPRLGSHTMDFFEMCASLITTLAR

For `Nc1ncnc2c1ncn2[C@@H]1O[C@H](COP(=O)(O)O)[C@@H](O)[C@H]1O` [AMP, reference compound], which EC50 [1] is on record?
The EC50 was 1.4 ± 0.2 µM.

What about the EC50 [2] of the same compound?
Its EC50 is 1.3 ± 0.2 µM.

— PMC4104029, “Mechanism of Action of Compound-13: An α1-Selective Small Molecule Activator of AMPK” (Chemistry & Biology, 2014)
